Assay results taken from article PMC7037052, “Predicting the Blood-Brain Barrier Permeability of New Drug-Like Compounds via HPLC with Various Stationary Phases” (Molecules, 2020).

Assays:
[1] = set-up: method as in PMID 16331406; conditions: rats; BB = Cbrain/Cplasma; training set; cited from earlier work
[2] = RP-HPLC retention on Purosphere RP-18e (ODS) column, buffer pH 7.4-acetonitrile; assay type: physicochemical; conditions: for log kw, ODS: extrapolated to buffer pH 7.4 as mobile phase, 25 °C; for s ODS: slope of Soczewiński-Wachtmeister equation, acetonitrile φ 0.3–0.6
Experimental: (§1) Retention parameters reported as the log k values were calculated by the expression:(1) logk=log(tR−t0)/t0 where tR and t0 are the retention times of the solute and a non-retained compound (citric acid), respectively. They were used to calculate the log kw values, i.e., logarithms of retention parameter in the buffer as the mobile phase. For this purpose the Soczewiński-Wachtmeister’s equation was used:log k = log kw − sφ(2) where φ is the volume fraction of organic modifier in the mobile phase; k and kw are retention parameters corresponding to mixed effluent and buffer as the mobile phase, respectively. The slope s is characteristic of a given solute and chromatographic system. Strong linear relationships between log k and φ values were found for all the compounds in the range of effluent composition examined (R^2 > 0.9). The log kw values determined for the ODS (log kw, ODS), IAM (log kw, IAM) and Cholester (log kw, Cholester) columns were intercorrelated and the following linear relationships with a very good statistical quality were obtained:log kw, ODS = 0.691(± 0.094) + 0.982(± 0.044) log kw, IAM(3) SD = 0.257; R^2 = 0.8880; N = 65 log kw, ODS = 0.911(± 0.062) + 0.765(± 0.025) log kw, Cholester(4) SD = 0.192; R^2 = 0.9371; N = 65 log kw, IAM = 0.356(± 0.073) + 0.721(± 0.029) log kw, Cholester(5) SD = 0.224; R^2 = 0.9068; N = 65
(§2) Shimadzu Vp (Shimadzu, Izabelin, Poland) liquid chromatographic system equipped with LC 10AT pump, SPD 10A UV-Vis detector, SCL 10A system controller, CTO-10 AS chromatographic oven and Rheodyne injector valve with a 20 µL loop was applied in HPLC measurements. Three stationary phases were employed: • Purosphere RP-18e (ODS), 125 × 4 mm i.d., 5 µm (Merck); • IAM.PC.DD2 100 × 4.6 mm i.d., 10 µm (Regis Chemicals Company, Morton Grove, IL, USA); • Cosmosil Cholester, 75 × 2 mm i.d., 2.5 µm (Genore, Warsaw, Poland).
(§3) As mobile phases buffer-acetonitrile mixtures were used. The buffer was prepared from 0.01 mol L^−1 solutions of Na2HPO4 and citric acid and the pH 7.4 value was fixed before mixing with organic modifier. With the ODS column acetonitrile concentration in the effluent, expressed as a volume fraction (φ, v/v), was changed in the range 0.3–0.6, with the constant step of 0.1. The flow rate was 1 mL min^−1. With the IAM column acetonitrile concentration was changed in the range 0.2–0.5, also with the constant step of 0.1 and the flow rate was 1.3 mL min^−1. With the Cosmosil Cholester column acetonitrile concentration was changed in the range 0.4–0.6, with the constant step of 0.05 and the flow rate was 0.4 mL min^−1. Samples of test compounds were dissolved in acetonitrile—c.a. 0.005 mg mL^−1. […] They were detected under UV light at 210 and 254 nm. All measurements were carried out at 25 °C. The dead time values were measured from non-retained compound (citric acid) peaks. All reported log kw values are the average of at least three independent measurements. The extrapolated retention coefficients (logs kw) achieved by HPLC on ODS, IAM and Cholester stationary phases were used for modelling the log BB permeation of 65 drug-like compounds employed as a whole test set (Table 1).

[3] = RP-HPLC retention on IAM.PC.DD2 (immobilized artificial membrane) column, buffer pH 7.4-acetonitrile; assay type: physicochemical; conditions: for log kw, IAM: extrapolated to buffer pH 7.4 as mobile phase, 25 °C; for s IAM: slope of Soczewiński-Wachtmeister equation, acetonitrile φ 0.2–0.5
Experimental: as §1, §2, §3

[4] = RP-HPLC retention on Cosmosil Cholester column, buffer pH 7.4-acetonitrile; assay type: physicochemical; conditions: for log kw, Cholester: extrapolated to buffer pH 7.4 as mobile phase, 25 °C; for s Cholester: slope of Soczewiński-Wachtmeister equation, acetonitrile φ 0.4–0.6
Experimental: as §1, §2, §3

[5] = system: human cancer cells; set-up: method as in doi:10.1016/j.arabjc.2016.12.024, PMID 24126095; conditions: cited from earlier work
[6] = system: normal cells; set-up: method as in doi:10.1016/j.arabjc.2016.12.024, PMID 24126095; conditions: cited from earlier work

SMILES	log BBexp. [1]	log kw, ODS [2]	s ODS [2]	log kw, IAM [3]	s IAM [3]	log kw, Cholester [4]	s Cholester [4]	antiproliferative activities in human cancer cells [5]	toxic effects for normal cells [6]
Brc1cc(Br)c(NC2=NCCN2)c(Br)c1 [Compound 38941-33-2]	0.58	–	–	–	–	–	–	–	–
Cc1cccc(N2CCn3c2nnc(-c2ccco2)c3=O)c1C [Compound 21]	–	2.26	4.20	1.42	3.51	1.66	3.33	significant antiproliferative activities	less toxic effects
COc1ccc2nc([S+]([O-])Cc3ncc(C)c(OC)c3C)[nH]c2c1 (centres unmarked) [Compound 73590-58-6]	−0.82	–	–	–	–	–	–	–	–
O=c1c(CCc2ccccc2)nnc2n1CCN2c1ccccc1Cl [Compound 63]	–	2.46	4.44	1.81	4.08	1.94	3.66	significant antiproliferative activities	less toxic effects
NC(N)=Nc1nc(-c2ccccc2)cs1 [Compound 2507-81-5]	−0.18	–	–	–	–	–	–	–	–
CN1C(=O)CC[C@H]1c1cccnc1 [Compound 486-56-6]	0.04	–	–	–	–	–	–	–	–
O=c1c(-c2ccco2)nnc2n1CCN2c1ccccc1Cl [Compound 24]	–	2.25	4.22	1.27	3.25	1.34	2.95	significant antiproliferative activities	less toxic effects
Clc1ccc(NC2=NCCN2)c(Cl)c1 [Compound 23830-88-8]	0.16	–	–	–	–	–	–	–	–
CCc1nnc2n(c1=O)CCN2c1ccccc1 [Compound 1]	–	0.97	2.70	0.55	2.10	0.20	1.25	significant antiproliferative activities	less toxic effects
CCc1nnc2n(c1=O)CCN2c1ccc(C)cc1 [Compound 2]	–	1.30	3.12	1.00	2.88	0.57	1.84	significant antiproliferative activities	less toxic effects
CN1Cc2c(C(=O)OC(C)(C)C)ncn2-c2ccsc2C1=O [Compound 99632-94-7]	−0.25	–	–	–	–	–	–	–	–
O=c1c(-c2ccccc2)nnc2n1CCN2c1ccc(Cl)cc1 [Compound 39]	–	3.41	5.20	2.57	5.32	3.19	5.30	significant antiproliferative activities	less toxic effects
O=c1c(CCc2ccccc2)nnc2n1CCN2c1ccc(Cl)cc1 [Compound 64]	–	3.56	5.81	2.68	5.44	3.22	5.12	significant antiproliferative activities	less toxic effects
CCc1nnc2n(c1=O)CCN2c1cccc(Cl)c1 [Compound 4]	–	1.33	3.15	0.84	2.60	0.62	1.82	significant antiproliferative activities	less toxic effects
O=c1c(-c2ccco2)nnc2n1CCN2c1c(Cl)cccc1Cl [Compound 28]	–	2.53	4.45	1.70	3.90	2.05	3.66	significant antiproliferative activities	less toxic effects
Brc1cccc(Br)c1NC1=NCCN1 [Compound 4205-93-0]	0.33	–	–	–	–	–	–	–	–
Cc1ncc2n1-c1ccc(Cl)cc1C(c1ccccc1F)=NC2 [Compound 59467-70-8]	0.32	–	–	–	–	–	–	–	–
O=c1c(-c2ccco2)nnc2n1CCN2c1ccccc1 [Compound 18]	–	2.12	4.06	1.29	3.23	1.43	3.12	–	–
COC(=O)Cc1nnc2n(c1=O)CCN2c1ccc(OC)cc1 [Compound 9]	–	1.30	3.02	0.81	2.45	0.57	1.82	–	–
CC(C)(C)OC(=O)c1ncn2c1[C@@H]1CCCN1C(=O)c1c(Br)cccc1-2 [Compound 84379-13-5]	−0.09	–	–	–	–	–	–	–	–
c1cncc([C@@H]2CCCN2)c1 [Compound 494-97-3]	0.32	–	–	–	–	–	–	–	–
CCc1nnc2n(c1=O)CCN2c1ccc(Cl)cc1 [Compound 5]	–	1.78	3.56	1.24	3.25	1.18	2.61	significant antiproliferative activities	less toxic effects
CN1CCC[C@H]1c1cccnc1 [Compound 54-11-5]	0.56	–	–	–	–	–	–	–	–
CCOc1ccc(N2CCn3c2nnc(CC(=O)OC)c3=O)cc1 [Compound 10]	–	1.95	3.91	1.42	3.39	1.36	2.81	–	–
CCOC(=O)Cc1nnc2n(c1=O)CCN2c1cccc(Cl)c1 [Compound 15]	–	2.85	4.90	2.05	4.45	2.41	4.15	significant antiproliferative activities	less toxic effects
O=c1c(Cc2ccc(Cl)cc2)nnc2n1CCN2c1ccccc1 [Compound 44]	–	3.60	5.62	2.39	4.81	3.01	4.70	–	–
Cc1ccccc1N1CCn2c1nnc(-c1ccco1)c2=O [Compound 19]	–	1.74	3.48	0.96	2.72	1.20	2.78	significant antiproliferative activities	less toxic effects
Clc1cccc(Cl)c1NC1=NCCN1 [Compound 4205-90-7]	0.19	–	–	–	–	–	–	–	–
COc1ccccc1N1CCn2c1nnc(-c1ccco1)c2=O [Compound 22]	–	1.67	3.48	1.11	3.02	1.22	2.68	significant antiproliferative activities	less toxic effects
